“Also recorded” adds a separate entry of the source.
Assays:
[1] = test system: monoclonal antibodies of the present invention (anti-11 dhTxB2 / 11 dh2,3dTxB2 mAb); test: Monoclonal antibody specificity: percent cross-reactivity (enzyme-based competition assay); type: binding, mouse; conditions: for % Reactivity (cross reactivity): relative to 11 dh TxB2 = 100%
Procedure: The present invention provides a urinary 11dhTxB2 Competitive ELISA Assay. An illustrative standard curve was prepared (see FIG. 6) by spiking known amounts of 11dhTxB2 into low level urine diluted 1:5 in Tris assay buffer (0.1M Tris, 0.1% BSA) or into assay buffer alone. 100 μl of standards or actual samples (having taken known amounts of aspirin and diluted 1:5 in Tris assay buffer) was added to wells coated with goat anti-mouse antibody, followed by the addition of 50 μl of 11 dhTxB2-AP (alkaline phosphatase) tracer and 50 μl of 11 dhTxB2 mAb. The reactions were then allowed to incubate for a predetermined amount of time, typically with shaking at room temperature. In preferred embodiments the incubation is about two hours in length. Each well is then washed with a wash buffer and approximately 200 μl of substrate added (p-nitrophenyl-phosphate, pNPP). The reactions are then incubated again for approximately thirty minutes. A stop solution is added to each well, and the plate read for OD at 405 nm.
Antibody clones of the invention were tested to determine cross-reactivity against various Thromboxane A2 metabolites and other like compounds. Table 2 provides percent cross reactivity of antibodies of the present invention against these various compounds: […]

[2] = test system: urinary 11dhTxB2 (TxA2 metabolites); test: Urinary 11dhTxB2 competitive ELISA in subjects on aspirin; type: in vivo, human; conditions: for urinary 11dhTxB2 per mg creatinine, average patient value: healthy no-aspirin average 1119 pg/mg
Procedure: The present invention provides a urinary 11dhTxB2 Competitive ELISA Assay. An illustrative standard curve was prepared (see FIG. 6) by spiking known amounts of 11dhTxB2 into low level urine diluted 1:5 in Tris assay buffer (0.1M Tris, 0.1% BSA) or into assay buffer alone. 100 μl of standards or actual samples (having taken known amounts of aspirin and diluted 1:5 in Tris assay buffer) was added to wells coated with goat anti-mouse antibody, followed by the addition of 50 μl of 11 dhTxB2-AP (alkaline phosphatase) tracer and 50 μl of 11 dhTxB2 mAb. The reactions were then allowed to incubate for a predetermined amount of time, typically with shaking at room temperature. In preferred embodiments the incubation is about two hours in length. Each well is then washed with a wash buffer and approximately 200 μl of substrate added (p-nitrophenyl-phosphate, pNPP). The reactions are then incubated again for approximately thirty minutes. A stop solution is added to each well, and the plate read for OD at 405 nm. Results from the assay provide for the amount of 11dhTxB2 and 11 dh2,3dTxB2 present in the sample (note that results are compared to the standard curve). The amount of the two metabolites present in the sample is indirectly proportional to the optical density read at 405 nm. For clinical samples, creatinine values are also obtained, and data from assays presented as pg metabolite/mg creatinine. Initially, 171 urine samples were taken from subjects either off aspirin or on 81 or 325 mg aspirin/day. TxA2 metabolite amounts were determined for each sample using the methods and kits of the present invention. Values were normalized for urinary dilution by dividing TxA2 metabolite amounts by creatinine concentrations. 354 urine samples from subjects either on or off aspirin therapy were run using the methods and kits of the present invention. Values were calculated and normalized for urinary dilution by dividing by creatinine concentration, and the frequency of each concentration was calculated and shown in a frequency plot, FIG. 5. Subjects on aspirin are plotted with solid bars and subjects not on aspirin are plotted using hatched bars. Positive samples are below 1500 pg/mg creatinine cutoff, whereas negative samples are those that are above the 1500 pg/mg creatinine cutoff. As shown in FIGS. 4-5, clinical data can be obtained using the above-described methods. […] The assay detection range was suitable for measurement of 11dhTxB2 in a population (62-3122 pg 11dhTxB2/mg creatinine—see FIG. 7). […] All three levels of aspirin doses are statistically significant when compared to the healthy, no aspirin controls.

[3] = molecular target: T1, platelet COX-1 (Homo sapiens, UniProt P23219); conditions: low dose aspirin; cited from earlier work
T1 construct: host or cells: platelets (in vivo, patients on low dose aspirin)

[4] = low dose aspirin; patients with arterial vascular disease; cited from earlier work
[5] = aspirin ingestion present, 354 urine samples in total

T1 sequence (P23219 24-599): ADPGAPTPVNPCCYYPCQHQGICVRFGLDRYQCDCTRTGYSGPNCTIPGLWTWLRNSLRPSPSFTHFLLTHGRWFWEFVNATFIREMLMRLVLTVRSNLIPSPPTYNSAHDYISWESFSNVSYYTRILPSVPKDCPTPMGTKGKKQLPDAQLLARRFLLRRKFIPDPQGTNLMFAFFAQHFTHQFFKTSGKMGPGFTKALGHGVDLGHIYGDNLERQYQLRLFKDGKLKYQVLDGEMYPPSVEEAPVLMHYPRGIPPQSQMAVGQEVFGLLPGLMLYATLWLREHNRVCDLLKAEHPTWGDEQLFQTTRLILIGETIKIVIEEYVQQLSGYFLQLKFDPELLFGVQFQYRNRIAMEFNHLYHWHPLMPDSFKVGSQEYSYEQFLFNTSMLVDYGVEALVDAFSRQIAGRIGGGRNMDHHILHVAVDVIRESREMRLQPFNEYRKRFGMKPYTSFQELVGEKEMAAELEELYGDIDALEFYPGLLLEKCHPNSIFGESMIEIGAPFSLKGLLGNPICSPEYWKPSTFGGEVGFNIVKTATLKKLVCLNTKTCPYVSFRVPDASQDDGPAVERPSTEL

Compound	reactivity of the antibodies with the compound (in words) [1]	% Reactivity (cross reactivity) [1]	also measured
O=C(O)CCCCC(=O)CCC1C(O)CC(O)C1CCC(=O)O (stereo not drawn) [2,3,4,5-tetranor-20-Carboxy 13,14-dihydro-15-keto PGF2α]	unreactive	<0.01%	
CCCCC[C@H](O)/C=C/[C@H]1[C@H](O)CC(=O)[C@@H]1C/C=C\CCCC(=O)O [PGE2]	unreactive	<0.01%	
CCCCC[C@H](O)/C=C/[C@H]1OC(O)C[C@H](O)[C@@H]1C/C=C\CC(=O)O (stereo partly shown) [2,3 dinor TxB2]	unreactive	1.93%	
CCCCC[C@H](O)/C=C/[C@H]1OC(O)C[C@H](O)[C@@H]1C/C=C\CCCC(=O)O (stereo partly shown) [TxB2, thromboxane B2]	unreactive	0.05%	
O=C(O)CCCCC(=O)CCC1C(O)CC(=O)C1CCC(=O)O (stereo not shown) [2,3,4,5-tetranor-20-Carboxy 13,14-dihydro-15-keto PGE2]	unreactive	<0.01%	
CCCCCC(O)C=CC1OC(=O)CC(O)C1CC=CCC(=O)O (stereo not shown) [11-dehydro-2,3 dinor thromboxane B2]	react; also recorded: high reactivity	166%	
CCCCCC(O)C=CC1OC(=O)CC(O)C1CC=CCCCC(=O)O (stereo not shown) [11 dh TxB2, 11-dehydro Thromboxane B2]	react; also recorded: high reactivity	100%	
CCCCC[C@H](O)/C=C/[C@@H]1[C@@H](CC(=O)CCCCC(=O)O)[C@@H](O)C[C@H]1O [6-keto PGF1a]	unreactive	<0.01%	
CCCCC[C@H](O)/C=C/[C@H]1C(=O)C[C@H](O)[C@@H]1C/C=C\CCCC(=O)O [PGD2]	unreactive	0.2%	
CC(=O)Oc1ccccc1C(=O)O [aspirin, acetyl salicylic acid]			urinary 11dhTxB2 per mg creatinine, average patient value ([2]; aspirin 81 mg/day): 418 pg/mg; urinary 11dhTxB2 per mg creatinine, average patient value ([2]; aspirin 162 mg/day): 471 pg/mg; urinary 11dhTxB2 per mg creatinine, average patient value ([2]; aspirin 325 mg/day): 377 pg/mg; number of urine samples Negative (>1500 pg/creatinine) [2, 5]: 16; number of urine samples Positive (<1500 pg/creatinine) [2, 5]: 251; block of platelet COX-1 activity [3]: more than 95%; reduction of cardiovascular events [4]: ≤ 25%

From patent publication US8168400B2, “Methods and kits for detection of thromboxane A2 metabolites” (Corgenix Medical Corporation, priority 2005, dated 2012)
